Test results as given in US6191161A, “Prolylendopeptidase inhibitors” (Chinoin Gyogyszer es Vegyeszeti, priority 1995, dated 2001).

target: T1, prolyl endopeptidase (PEP), rat brain extract (Rattus norvegicus, UniProt O70196); assay: PEP activity measurement on rat brain extract; type: biochemical, rat (Sprague-Dawley); settings: Z-glycyl-prolyl-7-amino-4-methyl-coumarin 62.5 μM, room temperature, 15 min
T1 construct: the supernatant, containing the enzyme, was collected; from tissue; host or cells: rat (Sprague-Dawley, male) whole brain without cerebellum, 40000 g supernatant
T1 sequence (O70196 1-710): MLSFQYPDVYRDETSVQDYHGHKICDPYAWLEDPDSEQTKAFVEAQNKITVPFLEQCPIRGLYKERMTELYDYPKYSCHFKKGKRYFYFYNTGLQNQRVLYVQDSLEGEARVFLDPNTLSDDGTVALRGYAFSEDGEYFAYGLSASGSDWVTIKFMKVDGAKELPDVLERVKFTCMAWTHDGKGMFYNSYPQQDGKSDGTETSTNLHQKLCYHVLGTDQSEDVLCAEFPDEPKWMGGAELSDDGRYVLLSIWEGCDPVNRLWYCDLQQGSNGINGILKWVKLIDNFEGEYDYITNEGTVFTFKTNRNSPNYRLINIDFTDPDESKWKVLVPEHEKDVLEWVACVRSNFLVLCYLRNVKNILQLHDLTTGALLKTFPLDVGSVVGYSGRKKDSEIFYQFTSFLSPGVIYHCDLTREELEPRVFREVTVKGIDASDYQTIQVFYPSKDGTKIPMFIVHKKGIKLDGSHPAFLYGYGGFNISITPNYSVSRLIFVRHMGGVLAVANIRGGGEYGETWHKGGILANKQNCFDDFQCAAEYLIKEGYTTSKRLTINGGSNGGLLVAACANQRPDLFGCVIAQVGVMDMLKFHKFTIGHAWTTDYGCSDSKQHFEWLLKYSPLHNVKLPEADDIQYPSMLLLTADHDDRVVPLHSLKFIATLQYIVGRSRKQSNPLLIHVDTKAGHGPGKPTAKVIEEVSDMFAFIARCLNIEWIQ
Protocol: PEP Activity Measurement on Rat Brain Extract:
After removal of the cerebellum whole brain of male (Sprague-Dawley, 180-200 g) rats was homogenized in a double volume of 0.1 M Tris-HCl, 1 mM EDTA buffer, pH=7.5 (PEP buffer). The homogenate was centrifuged for 30 min. at 4° C. at 40000 g and the supernatant, containing the enzyme, was collected. The pellet was resuspended in the same volume of buffer as in the first case and centrifuged again under the same conditions. The two supernatants were pooled and stored in 1 ml aliquots at -70° C. (for at least 3 months). The supernatant was thawn just before activity measurement and diluted in a 1:15 ratio with PEP buffer. […] The inhibitory effect of compounds was tested under the same conditions in the presence of 100 to 0.001 nM compound.

IC50 [pM]	Compound
360	Cc1ccc2c(c1)C(=O)N(CCC(=O)N1CSC[C@H]1C(=O)N1CCSC1)C2=O [Example 31]
278	O=C([C@@H]1CSCN1C(=O)CCN1C(=O)c2cccc3cccc(c23)C1=O)N1CCSC1 [Example 123]
451	O=C([C@@H]1C[S+]([O-])CN1C(=O)CCCN1C(=O)Nc2ccc([N+](=O)[O-])cc2S1(=O)=O)N1CCCC1 (stereo partly drawn) [Example 171]
